Results published in publication PMC9530963, “A cathelicidin antimicrobial peptide from Hydrophis cyanocinctus inhibits Zika virus infection by downregulating expression of a viral entry factor” (The Journal of Biological Chemistry, 2022).

Tested on: AXL
Assay: Effect of AC and PKA on Hc-CATH-induced AXL downregulation in A549 cells
Assay type: cell-based, Homo sapiens
Settings: 1 h pre-incubation of A549 cells, then Hc-CATH 5 μM, 24 h, Western blot
Description: Figure 6 Hc-CATH downregulates AXL via inhibiting COX-2/PGE2/AC/PKA pathway.A, effect of Hc-CATH on COX-2 protein level. A549 cells were incubated with Hc-CATH (1.25, 2.5, or 5 μM) or PBS (solvent of Hc-CATH) at 37 °C for 24 h, COX-2 protein level was examined by Western blot (upper panel) and analyzed by ImageJ (lower panel). B, effect of Hc-CATH on the enzymatic activity of COX-2. Hc-CATH (1.25, 2.5, 5, and 10 μM) or PBS was incubated with COX-2. After incubation at 37 °C for 10 min, the enzymatic activity of COX-2 was detected by enzyme activity inhibitor screening kit. Celecoxib (COX-2 inhibitor, 100 nM) was used as positive control. C, effect of Hc-CATH on PGE2 production. A549 cells were incubated with Hc-CATH (5 μM) at 37 °C. After incubation for 24 h, the level of PGE2 in the cell supernatant was detected by ELISA. D and E, effect of AC (D) and PKA (E) on Hc-CATH-induced AXL downregulation. A549 cells were incubated with forskolin (FSK, agonist of AC, 10 μM) or H89 (inhibitor of PKA, 5 μM) at 37 °C. After incubation for 1 h, the culture media were removed, cells were washed three times with PBS, and fresh culture media were added to cells in the presence of Hc-CATH (5 μM). After incubation for 24 h, AXL protein level was examined by Western blot (upper panel of D and E) and analyzed by ImageJ (lower panel of D and E). ns, not significant, ∗∗p < 0.01, and ∗∗∗p < 0.001. […]

SMILES | effect on Hc-CATH-mediated AXL downregulation (H89 5 μM) | effect on Hc-CATH-induced AXL downregulation (FSK 10 μM)
O=S(=O)(NCCNC/C=C/c1ccc(Br)cc1)c1cccc2cnccc12 [H89] | significantly facilitated Hc-CATH-mediated AXL downregulation | –
C=C[C@@]1(C)CC(=O)[C@]2(O)[C@@]3(C)[C@@H](O)CCC(C)(C)[C@@H]3[C@H](O)[C@H](OC(C)=O)[C@@]2(C)O1 [FSK, forskolin] | – | effectively counteracted the Hc-CATH-induced AXL downregulation
